This is an account of results in US10597388B2, “Pyridazinone herbicides” (FMC CORPORATION, priority 2014, dated 2020).

Experiment in all cases: Test A greenhouse herbicide test, pre- and postemergence
Common to all, as to format: in vivo

The test system of test [1] is velvetleaf (Abutilon theophrasti). The conditions noted are these: Abutilon theophrasti, 240 h; for pest or weed control at 125 g/ha: 125 g ai/ha; for pest or weed control at 500 g/ha: 500 g ai/ha; for pest or weed control at 500 g/ha / pest or weed control at 1000 g/ha: 0 to 100 scale; for pest or weed control at 1000 g/ha: 1000 g ai/ha. The essentials:
(§1)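 Visual injury ratings, 0 (no effect) to 100 (complete control), versus untreated plants after roughly 10 d in a greenhouse. Compounds, formulated in a surfactant-containing non-phytotoxic solvent, were sprayed on loam–sand soil after sowing (pre) or on one- to two-leaf plants 2–10 cm tall (post).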

Test [2] concerns crabgrass, large (large crabgrass, Digitaria sanguinalis). The conditions noted are these: Digitaria sanguinalis, 240 h; for pest or weed control at 125 g/ha: 125 g ai/ha; for pest or weed control at 500 g/ha: 500 g ai/ha; for pest or weed control at 500 g/ha / pest or weed control at 1000 g/ha: 0 to 100 scale; for pest or weed control at 1000 g/ha: 1000 g ai/ha. In outline:
as §1

The test system of test [3] is momingglory (Ipomoea spp.). Conditions: Ipomoea, 240 h; for pest or weed control at 125 g/ha: 125 g ai/ha; for pest or weed control at 500 g/ha: 500 g ai/ha; for pest or weed control at 500 g/ha / pest or weed control at 1000 g/ha: 0 to 100 scale; for pest or weed control at 1000 g/ha: 1000 g ai/ha. In outline:
as §1

Where [4] appears, read: post-emergence, Postemergence, 0 is no effect, 100 is complete control, read-out: Velvetleaf plant response rating.
The mark [5] stands for this setting: pre-emergence, Preemergence, 0 no effect, 100 complete control, read-out: Plant response rating, Velvetleaf.
Setting [6] is: post-emergence, Postemergence, 0 is no effect, 100 is complete control, read-out: Crabgrass, Large plant response rating.
[7] abbreviates: pre-emergence, Preemergence, 0 no effect, 100 complete control, read-out: Plant response rating, Crabgrass, Large.
[8] abbreviates: post-emergence, Postemergence, 0 is no effect, 100 is complete control, read-out: Morningglory plant response rating.
The mark [9] stands for this setting: pre-emergence, Preemergence, 0 no effect, 100 complete control, read-out: Plant response rating, Morningglory.

Each structure is given as a SMILES string. Where two headings read alike, the source gives them in different places.

Regarding `Cc1nn(C)c(=O)c(-c2c(C)oc3cccc(C)c23)c1O` [Compound 8, 4-(2,4-dimethyl-3-benzofuranyl)-5-hydroxy-2,6-dimethyl-3(2H)-pyridazinone], the pest or weed control at 125 g/ha in test [1] (post-emergence, Postemergence, visual rating after approx. 10 d, 0 to 100 scale (0 no effect, 100 complete control), read-out: Plant response rating, Velvetleaf) is 60%; in test [1] (pre-emergence, Preemergence, 0 to 100 scale where 0 is no effect and 100 is complete control, read-out: Velvetleaf plant response rating) it was 0%; in test [2] (post-emergence, Postemergence, visual rating after approx. 10 d, 0 to 100 scale (0 no effect, 100 complete control), read-out: Plant response rating, Crabgrass, Large) it was 0%; in test [2] (pre-emergence, Preemergence, 0 to 100 scale where 0 is no effect and 100 is complete control, read-out: Crabgrass, Large plant response rating), 10%; in test [3] (post-emergence, Postemergence, visual rating after approx. 10 d, 0 to 100 scale (0 no effect, 100 complete control), read-out: Plant response rating, Morningglory), 0%; in test [3] (pre-emergence, Preemergence, 0 to 100 scale where 0 is no effect and 100 is complete control, read-out: Morningglory plant response rating), 0%. Also, the pest or weed control at 500 g/ha in test [1] (setting [4]) came out at 60%; in test [1] (setting [5]), 30%; in test [2] (setting [6]), 30%; in test [2] (setting [7]) it was 60%; in test [3] (setting [8]), 10%; in test [3] (setting [9]), 0%.
`Cc1nn(C)c(=O)c(-c2cccc3ccccc23)c1O` [Compound 11, 5-hydroxy-2,6-dimethyl-4-(1-naphthalenyl)-3(2H)-pyridazinone]: the pest or weed control at 1000 g/ha in test [1] (setting [4]) was 100%; in test [1] (setting [5]) it was 80%; in test [2] (setting [6]), 70%; in test [2] (setting [7]), 80%; in test [3] (setting [8]), 90%; in test [3] (setting [9]), 90%.
